Assay [1] has as its system Rattus norvegicus. Put plainly: Antihypertensive activity as percentage fall in systolic blood pressure in spontaneously hypertensive rats 3h after 50 mg/kg po administration. In kind it is functional, Artery.
The subject of assay [2] is Rattus norvegicus. Put plainly: Antihypertensive activity as percentage fall in systolic blood pressure in spontaneously hypertensive rats 4 hr after 50 mg/kg po administration; NS means nonsignificant difference between treated and control group. On the set-up: dose 50 mg/kg. The note with it: Artery, at 50 mg/kg. It counts as functional, organism-based.
In assay [3] the test system is Rattus norvegicus. As to the kind of experiment: Percentage fall in systolic blood pressure in spontaneously hypertensive rats 1 hr after 50 mg/kg p.o. administration; Not significant. The note with it: Artery, at 50 mg/kg. In kind it is functional, organism-based. On the set-up: dose 50 mg/kg.
The subject of assay [4] is Rattus norvegicus. As to the kind of experiment: Percentage fall in systolic blood pressure in spontaneously hypertensive rats 2 hr after 50 mg/kg p.o. administration; Not significant. In kind it is functional, organism-based. Also on record: dose 50 mg/kg. The note with it: Artery, at 50 mg/kg.
For assay [5], the system named is Rattus norvegicus. As to the kind of experiment: Percentage fall in systolic blood pressure in spontaneously hypertensive rats 2 hr after 50 mg/kg p.o. administration. Conditions: route oral. In kind it is functional, Artery.
The subject of assay [6] is Rattus norvegicus. Put plainly: Percentage fall in systolic blood pressure in spontaneously hypertensive rats 3h after 50 mg/kg p.o. administration; Not significant. It counts as functional, organism-based. Also on record: dose 50 mg/kg. Conditions: Artery, at 50 mg/kg.
The subject of assay [7] is Rattus norvegicus. Put plainly: Antihypertensive activity as percentage fall in systolic blood pressure in spontaneously hypertensive rats 1 hr after 50 mg/kg po administration. In kind it is functional, Artery.
The subject of assay [8] is Rattus norvegicus. As to the kind of experiment: Antihypertensive activity as percentage fall in systolic blood pressure in spontaneously hypertensive rats 4 hr after 50 mg/kg po administration. In kind it is functional, Artery.
The subject of assay [9] is Rattus norvegicus. As to the kind of experiment: Antihypertensive activity as percentage fall in systolic blood pressure in spontaneously hypertensive rats 1 hr after 25 mg/kg po administration. In kind it is functional, Artery.
The test system of assay [10] is Rattus norvegicus. Put plainly: Antihypertensive activity as percentage fall in systolic blood pressure in spontaneously hypertensive rats 2 hr after 25 mg/kg po administration. It counts as functional, Artery.
For assay [11], the system named is Rattus norvegicus. Put plainly: Antihypertensive activity as percentage fall in systolic blood pressure in spontaneously hypertensive rats 3h after 25 mg/kg po administration;NS means nonsignificant difference between treated and control group. In kind it is functional, organism-based. On the set-up: dose 25 mg/kg. The note with it: Artery, at 25 mg/kg.

Structures are written as SMILES.

As for `COc1cc2c(cc1OC)[C@@H]1C[C@]3(CNC(=O)O3)[C@@H](c3ccccc3)CN1CC2`, the Fall with Rattus norvegicus [1] was -9%; in the assay with Rattus norvegicus [2] it was “Not significant”; in the assay on Rattus norvegicus [3], “Not significant”; with Rattus norvegicus [4], “Not significant”.

`CN1C[C@]2(CCN3CCc4ccccc4[C@@H]3C2)OC1=O`: the Fall with Rattus norvegicus [1] was -12%; with Rattus norvegicus [2], “Not significant”; in the assay on Rattus norvegicus [3], “Not significant”; with Rattus norvegicus [5], -10%.

As for `COc1cc2c(cc1OC)[C@@H]1C[C@]3(CCN1CC2)CN(C(C)(C)C)C(=O)O3`, the Fall result in the assay with Rattus norvegicus [6] is “Not significant”; in the assay with Rattus norvegicus [2], “Not significant”; in the assay with Rattus norvegicus [7], 39%; in the assay with Rattus norvegicus [5], 20%.

`COc1cc2c(cc1OC)[C@@H]1C[C@]3(CCN1CC2)CN(C(C)C)C(=O)O3`: the Fall entry was “Not significant” in the assay with Rattus norvegicus [6], “Not significant” in the assay with Rattus norvegicus [2], 29% in the assay on Rattus norvegicus [7] and 16% with Rattus norvegicus [5].

With `CCCCN1C[C@]2(CCN3CCc4cc(OC)c(OC)cc4[C@@H]3C2)OC1=O`, the Fall result in the assay with Rattus norvegicus [6], with Rattus norvegicus [2], in the assay on Rattus norvegicus [3] and in the assay on Rattus norvegicus [4] was “Not significant” in each case.

With `COc1cc2c(cc1OC)[C@@H]1C[C@]3(CCN1CC2)CNC(=O)O3`, the Fall result in the assay on Rattus norvegicus [6], in the assay on Rattus norvegicus [2], with Rattus norvegicus [3] and in the assay on Rattus norvegicus [4] was “Not significant” each time.

On to `CCCC[C@H]1CN2CCc3cc(OC)c(OC)cc3[C@@H]2C[C@]12CNC(=O)O2`, for which the Fall is listed as 13% in the assay on Rattus norvegicus [1], 13% in the assay on Rattus norvegicus [8], 34% in the assay with Rattus norvegicus [7] and 21% with Rattus norvegicus [5].

Consider `COc1cc2c(cc1OC)[C@@H]1C[C@@]3(CCN1CC2)CNC(=O)O3`, for which the Fall in the assay with Rattus norvegicus [1] was 12%; with Rattus norvegicus [6], “Not significant”; in the assay on Rattus norvegicus [8], 15%; in the assay with Rattus norvegicus [2], “Not significant”; with Rattus norvegicus [9], 22%; in the assay on Rattus norvegicus [7], 20%. In addition, the Fall result is “Not significant” in the assay with Rattus norvegicus [3]; 19% in the assay on Rattus norvegicus [10]; 13% in the assay on Rattus norvegicus [5]; “Not significant” with Rattus norvegicus [4]; “Not significant” in the assay with Rattus norvegicus [11].

For the molecule `COc1cc2c(cc1OC)[C@@H]1C[C@@]3(CCN1CC2)CN(C)C(=O)O3`, the Fall result is “Not significant” in the assay on Rattus norvegicus [6], 21% in the assay on Rattus norvegicus [8], 28% in the assay with Rattus norvegicus [7] and 14% in the assay on Rattus norvegicus [5].

For `O=C1NC[C@@]2(CCN3C[C@@H](c4ccccc4)c4ccccc4[C@@H]3C2)O1`, the Fall entry in the assay with Rattus norvegicus [6], in the assay with Rattus norvegicus [2], with Rattus norvegicus [3] and in the assay with Rattus norvegicus [4] was “Not significant” throughout.

Take `CCCN1C[C@]2(CCN3CCc4cc(OC)c(OC)cc4[C@@H]3C2)OC1=O`: the Fall result in the assay on Rattus norvegicus [6], in the assay on Rattus norvegicus [2], in the assay with Rattus norvegicus [3] and with Rattus norvegicus [4] was “Not significant” in each case.

For `CCOc1cc2c(cc1OC)[C@@H]1C[C@]3(CNC(=O)O3)[C@@H](CC)CN1CC2`, the Fall is 17% in the assay on Rattus norvegicus [1], “Not significant” in the assay on Rattus norvegicus [2], 39% in the assay with Rattus norvegicus [7] and 32% with Rattus norvegicus [5].

Take `COc1cc2c(cc1OC(C)C)[C@@H]1C[C@@]3(CCN1CC2)CNC(=O)O3`: the Fall was 8% with Rattus norvegicus [1], “Not significant” in the assay with Rattus norvegicus [2], 19% in the assay on Rattus norvegicus [7] and “Not significant” in the assay on Rattus norvegicus [4].

`O=C1NC[C@]2(CCN3CCc4ccccc4[C@@H]3C2)O1`: the Fall result in the assay on Rattus norvegicus [6], with Rattus norvegicus [2], with Rattus norvegicus [3] and with Rattus norvegicus [4] was “Not significant” throughout.

Take `C[C@@H]1CN2CC[C@@]3(CNC(=O)O3)C[C@H]2c2ccccc21`: the Fall entry in the assay with Rattus norvegicus [6] was “Not significant”; in the assay on Rattus norvegicus [2], “Not significant”; with Rattus norvegicus [7], 16%; with Rattus norvegicus [4], “Not significant”.

Consider `CCOc1cc2c(cc1OC)CCN1C[C@H](CC)[C@@]3(CNC(=O)O3)C[C@@H]21`, for which the Fall is 17% with Rattus norvegicus [1], “Not significant” with Rattus norvegicus [2], 25% in the assay with Rattus norvegicus [7] and 22% in the assay on Rattus norvegicus [5].

Take `CCCCOc1cc2c(cc1OC)CCN1CC[C@@]3(CNC(=O)O3)C[C@@H]21`: the Fall result with Rattus norvegicus [6] was “Not significant”; in the assay on Rattus norvegicus [2], “Not significant”; in the assay on Rattus norvegicus [7] it was 15%; in the assay on Rattus norvegicus [4], “Not significant”.

Turning to `CC[C@H]1NC(=O)O[C@]12CCN1CCc3cc(OC)c(OC)cc3[C@@H]1C2`, the Fall in the assay with Rattus norvegicus [1] was 25%; in the assay with Rattus norvegicus [8] it was 25%; with Rattus norvegicus [7], 41%; in the assay on Rattus norvegicus [5] it was 38%.

Turning to `CCCOc1cc2c(cc1OC)CCN1CC[C@@]3(CNC(=O)O3)C[C@@H]21`, the Fall entry with Rattus norvegicus [6], with Rattus norvegicus [2], in the assay on Rattus norvegicus [3] and with Rattus norvegicus [4] was “Not significant” in each case.

`CCC[C@H]1CN2CCc3cc(OC)c(OC)cc3[C@@H]2C[C@]12CNC(=O)O2`: the Fall in the assay on Rattus norvegicus [1] is given as 17%; with Rattus norvegicus [8], 16%; in the assay with Rattus norvegicus [7], 41%; with Rattus norvegicus [5], 27%.

For the molecule `CC[C@H]1CN2CCc3cc(OC)c(OC)cc3[C@@H]2C[C@]12CNC(=O)O2` (racemic), the Fall with Rattus norvegicus [1] (50 mg/kg) was 29%; in the assay with Rattus norvegicus [8] (50 mg/kg), 33%; with Rattus norvegicus [7] (50 mg/kg), 45%; with Rattus norvegicus [5] (50 mg/kg) it was 37%.

For the molecule `CN1C[C@@]2(CCN3CCc4ccccc4[C@@H]3C2)OC1=O`, the Fall entry with Rattus norvegicus [6], with Rattus norvegicus [2], with Rattus norvegicus [3] and in the assay with Rattus norvegicus [4] was “Not significant” in each case.

For `CCN1C[C@@]2(CCN3CCc4cc(OC)c(OC)cc4[C@@H]3C2)OC1=O`, the Fall entry is “Not significant” with Rattus norvegicus [6], “Not significant” in the assay with Rattus norvegicus [2], 31% with Rattus norvegicus [7] and “Not significant” with Rattus norvegicus [4].

For the molecule `CC1Cc2ccccc2[C@@H]2C[C@@]3(CCN12)CNC(=O)O3` (stereo partly specified), the Fall entry in the assay with Rattus norvegicus [6], in the assay on Rattus norvegicus [2], in the assay on Rattus norvegicus [3] and in the assay on Rattus norvegicus [4] was “Not significant” throughout.

As to `COc1cc2c(cc1OC)[C@@H]1C[C@]3(CCN1CC2)CN(C)C(=O)O3`, the Fall entry is “Not significant” in the assay on Rattus norvegicus [6], 18% in the assay with Rattus norvegicus [8], 27% in the assay on Rattus norvegicus [7] and “Not significant” with Rattus norvegicus [4].

For `C[C@H]1CN2CC[C@@]3(CNC(=O)O3)C[C@H]2c2ccccc21`, the Fall result with Rattus norvegicus [6], with Rattus norvegicus [2], with Rattus norvegicus [3] and with Rattus norvegicus [4] was “Not significant” in each case.

Regarding `O=C1NC[C@@]2(CCN3CCc4cc5c(cc4[C@@H]3C2)OCO5)O1`, the Fall with Rattus norvegicus [1] was 14%; with Rattus norvegicus [2], “Not significant”; in the assay on Rattus norvegicus [7], 28%; in the assay with Rattus norvegicus [4] it was “Not significant”.

As for `CC[C@H]1CN2CCc3ccccc3[C@@H]2C[C@]12CNC(=O)O2`, the Fall entry in the assay with Rattus norvegicus [6] was “Not significant”; in the assay on Rattus norvegicus [2], “Not significant”; in the assay with Rattus norvegicus [7], 25%; with Rattus norvegicus [4] it was “Not significant”.

As for `COc1cc2c(cc1OC)[C@@H]1C[C@]3(CNC(=O)O3)[C@@H](Cc3ccccc3)CN1CC2`, the Fall entry in the assay on Rattus norvegicus [6] is “Not significant”; in the assay with Rattus norvegicus [8] it was 19%; in the assay with Rattus norvegicus [7], 27%; with Rattus norvegicus [4], “Not significant”.

As for `CC[C@H]1CN2CCc3cc(OC)c(OC)cc3[C@@H]2C[C@]12CNC(=O)O2`, the Fall came out at 33% in the assay on Rattus norvegicus [1] (50 mg/kg); 28% with Rattus norvegicus [8] (50 mg/kg); 44% with Rattus norvegicus [9]; 52% in the assay on Rattus norvegicus [7] (50 mg/kg); 30% in the assay with Rattus norvegicus [10]; 40% in the assay with Rattus norvegicus [5] (50 mg/kg).

For the molecule `CC[C@@H]1NC(=O)O[C@]12CCN1CCc3cc(OC)c(OC)cc3[C@@H]1C2`, the Fall with Rattus norvegicus [1] stood at 30%; with Rattus norvegicus [8] it was 27%; in the assay with Rattus norvegicus [7], 45%; with Rattus norvegicus [5] it was 37%.

`CC[C@H]1CN2CCc3cc(OC)c(OC)cc3[C@@H]2C[C@@]12OC(=O)N[C@H]2CC`: the Fall in the assay on Rattus norvegicus [1] was found to be 30%; in the assay with Rattus norvegicus [8], 24%; in the assay with Rattus norvegicus [7] it was 43%; in the assay with Rattus norvegicus [5], 48%.

`CC[C@H]1CN2CCc3cc4c(cc3[C@@H]2C[C@]12CNC(=O)O2)OCO4`: the Fall entry in the assay on Rattus norvegicus [6], in the assay with Rattus norvegicus [2], with Rattus norvegicus [3] and with Rattus norvegicus [4] was “Not significant” throughout.

The values are drawn from ChEMBL document CHEMBL1122367, “Synthesis and antihypertensive activity of a series of spiro[1,3,4,6,7,11b-hexahydro-2H-benzo[a]quinolizine-2,5'-oxazolidin-2'-one]s” (1983).
